Assay results as given in PMC12686490 (Nature Communications, 2025).
Numbered stars: 1 amine (or outer) side, 2 acyl side, 3 side chain; on linkers, the order of the positions; unused ones are H or OH. Bridge positions count the residues as written; N and C are the ends. Square brackets hold non-standard residues; d marks the D form. Peptide text beside a SMILES is read from it. X1 = O=C(C1(O)C[C@H](O)[C@@H](N[*:1])[C@H]([C@H](O)[C@H](O)CO)O1)[*:2]; X2 = CC(=O)NC(C(=O)OC(C(C)C)C(N[*:1])C(=O)[*:2])C(O)C(C)C; NMeW = CN[C@@H](Cc1c[nH]c2ccccc12)C(=O)O; Phe(3-Br) = N[C@@H](Cc1cccc(Br)c1)C(=O)O; PhLac = O=C(O)[CH](O)Cc1ccccc1; NMeT = CN[CH](C(=O)O)[CH](C)O; Nle = CCCC[C@H](N)C(=O)O; NMeA = CN[CH](C)C(=O)O; NMeDha = C=C(NC)C(=O)O

Assays:
[1] = molecular target: T1, CCKBR (Homo sapiens, UniProt P32239); assay: PRESTO-Tango assay; format: cell-based; conditions: screening
T1 sequence (P32239 1-447): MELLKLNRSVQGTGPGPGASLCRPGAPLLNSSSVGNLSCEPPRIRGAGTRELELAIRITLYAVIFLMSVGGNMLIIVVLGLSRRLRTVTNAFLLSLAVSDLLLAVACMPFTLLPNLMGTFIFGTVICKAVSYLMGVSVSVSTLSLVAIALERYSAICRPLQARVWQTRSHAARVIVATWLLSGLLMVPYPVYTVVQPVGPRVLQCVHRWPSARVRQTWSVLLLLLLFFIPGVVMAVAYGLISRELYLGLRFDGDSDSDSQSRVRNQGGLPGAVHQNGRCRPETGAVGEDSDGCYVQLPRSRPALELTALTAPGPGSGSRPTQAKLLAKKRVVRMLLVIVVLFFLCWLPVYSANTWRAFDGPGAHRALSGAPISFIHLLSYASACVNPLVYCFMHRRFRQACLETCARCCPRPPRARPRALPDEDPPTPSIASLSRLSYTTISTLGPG

[2] = molecular target: T1, CCKBR; assay: Calcium mobilization assay; format: cell-based; conditions: screening
[3] = tested on: CCKBR-LTP in the auditory cortex; assay: MEA recording, TBS-induced CCKBR-LTP in auditory cortex slices of C57 mice; set-up: species or system mouse; conditions: for Effect on TBS-induced CCKBR-LTP: one-hour preincubation: 100 nM YF476, 10 μM U-73122, 50 μM 2-APB, 20 μM YM254890, 100 μM barbadin, 10 μM H-89, 300 ng PTX injected into AC 24-48 h before
[4] = molecular target: GPR173 / β-arrestin2 (Homo sapiens, UniProt Q9NS66); assay: BRET-based β-arrestin2 assay, 293T-GPR173 cells; format: cell-based; conditions: up to 10 μM
GPR173 / β-arrestin2, sequence (Q9NS66 whole entry): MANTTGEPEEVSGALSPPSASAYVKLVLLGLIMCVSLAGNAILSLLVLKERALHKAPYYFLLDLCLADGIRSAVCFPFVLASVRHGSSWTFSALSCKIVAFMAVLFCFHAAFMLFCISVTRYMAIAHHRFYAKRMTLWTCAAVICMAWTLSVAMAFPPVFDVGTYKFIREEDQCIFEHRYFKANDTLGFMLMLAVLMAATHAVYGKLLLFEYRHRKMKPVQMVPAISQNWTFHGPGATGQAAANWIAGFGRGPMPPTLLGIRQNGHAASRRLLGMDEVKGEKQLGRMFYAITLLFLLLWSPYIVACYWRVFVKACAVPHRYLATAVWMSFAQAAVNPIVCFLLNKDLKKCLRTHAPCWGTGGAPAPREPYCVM

[5] = molecular target: GPR173 / β-arrestin1 (Homo sapiens, UniProt Q9NS66); assay: BRET-based β-arrestin1 assay, 293T-GPR173 cells; format: cell-based; conditions: up to 10 μM
GPR173 / β-arrestin1, sequence (Q9NS66 whole entry): as above

[6] = tested on: CCKBR-LTP in the auditory cortex; assay: MEA recording, drug plus LFS-induced LTP in auditory cortex slices; set-up: species or system mouse; conditions: 200 nM, 10 min, AC slices of C57 mice

| Structure (SMILES) | Effect on TBS-induced CCKBR-LTP [3] | further results |
| --- | --- | --- |
| CCCC[C@H](NC(=O)[C@H](Cc1c[nH]c2ccccc12)N(C)C(=O)C1(O)C[C@H](O)[C@@H](NC(C)=O)[C@H]([C@H](O)[C@H](O)CO)O1)C(=O)N[C@@H](CC(=O)O)C(=O)N[C@@H](Cc1cccc(Br)c1)C(N)=O (stereo partly drawn) [MF-7] (Ac-[X1][NMeW][Nle]D[Phe(3-Br)]-NH2) |  | Induction of β-arrestin2 signaling [1]: highly potent; Activation of Gαq/11-Ca2+ signaling [2]: performed poorly |
| CNc1cccc(NC(=O)N[C@@H]2N=C(c3ccccn3)c3ccccc3N(CC(=O)C(C)(C)C)C2=O)c1 [YF476] | confirmed that the LTP was CCKBR-dependent |  |
| C=C1C(=O)NC(C)C(=O)N(C)C(C)C(=O)NC(C(OC(=O)C(NC(C)=O)C(O)C(C)C)C(C)C)C(=O)N(C)C(C(C)OC)C(=O)OC(C)C(NC(C)=O)C(=O)OC(Cc2ccccc2)C(=O)N1C (stereo not drawn) [YM254890] (Ac-T[PhLac][NMeDha]A[NMeA][X2][NMeT](Me); ester 1-C; configuration not given here) | significantly and almost completely inhibited |  |
| Nn1cnc2scc(-c3ccc(Cc4ccccc4)cc3)c2c1=O [barbadin] | could not inhibit | Effect on the inhibition of TBS-induced LTP by MF-8 ([3]; 2-h preincubation of barbadin + 200 nM MF-8): could indeed eliminate the inhibitory effect of MF-8 |
| O=S(=O)(NCCNC/C=C/c1ccc(Br)cc1)c1cccc2cnccc12 [H-89] | partially inhibited |  |
| NCCOB(c1ccccc1)c1ccccc1 [2-APB] | significantly and almost completely inhibited |  |
| CSCC[C@H](NC(=O)[C@H](Cc1ccc(OS(=O)(=O)O)cc1)NC(=O)[C@@H](N)CC(=O)O)C(=O)NCC(=O)N[C@@H](Cc1c[nH]c2ccccc12)C(=O)N[C@@H](CCSC)C(=O)N[C@@H](CC(=O)O)C(=O)N[C@@H](Cc1ccccc1)C(N)=O [CCK8s] |  | Activation of β-arrestin2 downstream of GPR173 [4]: could activate; Activation of β-arrestin1 downstream of GPR173 [5]: could activate; LTP induction by drug with LFS (fEPSP amplitude) [6]: induced LTP |
| COc1ccc2c(c1)CC[C@@H]1[C@@H]2CC[C@]2(C)[C@@H](NCCCCCCN3C(=O)C=CC3=O)CC[C@@H]12 [U-73122] | significantly and almost completely inhibited |  |
